Measured values from US9174967B2, “Substituted pyrazole-containing compounds and their use as pesticides” (BASF SE, priority 2012, dated 2015).

How the values were obtained:
Assay in all cases: whole plant or invertebrate
Format in all cases: in vivo
[1] = test system: Mediterranean Fruitfly (Ceratitis capitata); conditions: 120 h, egg and larval mortality after 5 days, read-out: mortality in comparison with untreated controls
[2] = test system: Tobacco Budworm (Heliothis virescens); conditions: in Gossypium hirsutum, 96 h, larvae, 4 days after treatment, read-out: mortality in comparison with untreated controls
[3] = test system: Vetch Aphid (Megoura viciae); conditions: foliar, 120 h, adult aphids, after 5 days, read-out: mortality in comparison with untreated controls
[4] = test system: Orchid Thrips (dichromothrips corbetti); conditions: 96 h, adult thrips, after 4 days, read-out: mortality in comparison with untreated controls
[5] = test system: Rice Brown Plant Hopper (Nilaparvata lugens); conditions: adults, after 72 hours, read-out: mortality in comparison with untreated controls
[6] = test system: Red Spider Mite (Tetranychus kanzawai); conditions: in Vigna unguiculata, 72 hours after treatment, read-out: mortality in comparison with untreated controls
[7] = test system: Rice Green Leafhopper (Nephotettix virescens); conditions: adults, after 72 hours, read-out: mortality in comparison with untreated controls
[8] = test system: Silverleaf Whitefly (Bemisia argentifolii); conditions: 72 h, whitefly adults, 3 days after treatment, read-out: mortality in comparison with untreated controls
[9] = test system: Boll Weevil (Anthonomus grandis); conditions: 120 h, egg and larval mortality after 5 days, read-out: mortality in comparison with untreated controls
[10] = test system: Diamond Back Moth (plutella xylostella); conditions: in Brassica oleracea, foliar, leaf dip, 3rd instar larvae, 72 hours after treatment, read-out: mortality in comparison with untreated controls
[11] = test system: Cowpea Aphid (aphis craccivora); conditions: spray, population reduction assessed after 24, 72 and 120 hours, read-out: mortality in comparison with untreated controls
[12] = test system: Southern Armyworm (Spodoptera eridania); conditions: in Phaseolus lunatus, 96 h, larvae, 4 days after treatment, read-out: mortality in comparison with untreated controls
[13] = test system: Colorado Potato Beetle (Leptinotarsa decemlineata); conditions: in Solanum melongena, foliar, 96 h, larvae, 4 days after treatment, read-out: mortality in comparison with untreated controls
[14] = test system: Green Peach Aphid (Myzus persicae); conditions: 120 h, after 5 days, read-out: mortality in comparison with untreated controls

FC(F)(F)c1nn(-c2ncccn2)c(N=S2CCCC2)c1-c1cc(Cl)c2c(c1)OCO2 [I.1-3, 2-[4-(7-Chloro-1,3-benzodioxol-5-yl)-5-(thiolan-1-ylideneamino)-3-(trifluoromethyl)pyrazol-1-yl]pyrimidine]
≥ 75%: mortality at 2500 ppm [1] | mortality at 2500 ppm [2] | mortality at 2500 ppm [3] | mortality at 300 ppm [4] | mortality at 500 ppm [5] | mortality at 300 ppm [6] | mortality at 300 ppm [7] | mortality at 500 ppm [8] | mortality at 2500 ppm [9] | mortality at 300 ppm [10] | mortality at 300 ppm [11] | mortality at 300 ppm [12]

CC(C)S(=Nc1c(-c2cc(Cl)c3c(c2)OCO3)c(C(F)(F)F)nn1-c1ncccn1)C(C)C [I.1-2, [4-(7-Chloro-1,3-benzodioxol-5-yl)-2-pyrimidin-2-yl-5-(trifluoromethyl)pyrazol-3-yl]imino-diisopropyl-λ^4-sulfane]
≥ 75%: mortality at 2500 ppm [1] | mortality at 2500 ppm [2] | mortality at 2500 ppm [3] | mortality at 300 ppm [4] | mortality at 500 ppm [5] | mortality at 300 ppm [7] | mortality at 500 ppm [8] | mortality at 2500 ppm [9] | mortality at 300 ppm [10] | mortality at 300 ppm [11] | mortality at 300 ppm [12]

CCNC(=O)N(C(=O)NCC)c1c(-c2cc(Cl)cc(C(F)(F)F)c2)c(C(F)(F)F)nn1-c1ncccn1 [I.1-9, 1-[4-[3-chloro-5-(trifluoromethyl)phenyl]-2-pyrimidin-2-yl-5-(trifluoromethyl)pyrazol-3-yl]-3-ethyl-1-(ethylcarbamoyl)urea]
≥ 75%: mortality at 500 ppm [5]

CCS(CC)=Nc1c(-c2cc(Cl)cc(C(F)(F)F)c2)c(C(F)(F)F)nn1-c1ncccn1 [I.1-4]
≥ 75%: mortality at 2500 ppm [1] | mortality at 2500 ppm [2] | mortality at 2500 ppm [3] | mortality at 300 ppm [4] | mortality at 500 ppm [5] | mortality at 300 ppm [6] | mortality at 300 ppm [7] | mortality at 2500 ppm [9] | mortality at 300 ppm [10] | mortality at 300 ppm [11] | mortality at 300 ppm [12]

CCS(CC)=Nc1c(-c2cc(Cl)c3c(c2)OCO3)c(C(F)(F)F)nn1-c1ncccn1 [I.1-1, [4-(7-Chloro-1,3-benzodioxol-5-yl)-2-pyrimidin-2-yl-5-(trifluoromethyl)pyrazol-3-yl]imino-diethyl-λ^4-sulfane]
≥ 75%: mortality at 2500 ppm [1] | mortality at 2500 ppm [2] | mortality at 2500 ppm [3] | mortality at 300 ppm [4] | mortality at 500 ppm [5] | mortality at 300 ppm [6] | mortality at 300 ppm [7] | mortality at 500 ppm [8] | mortality at 2500 ppm [9] | mortality at 300 ppm [10] | mortality at 300 ppm [11] | mortality at 300 ppm [12]

CC(C)S(=Nc1c(-c2cc(Cl)cc(C(F)(F)F)c2)c(C(F)(F)F)nn1-c1ncccn1)C(C)C [I.1-5]
≥ 75%: mortality at 2500 ppm [1] | mortality at 2500 ppm [2] | mortality at 2500 ppm [3] | mortality at 300 ppm [4] | mortality at 500 ppm [5] | mortality at 300 ppm [6] | mortality at 300 ppm [7] | mortality at 300 ppm [13] | mortality at 500 ppm [8] | mortality at 2500 ppm [9] | mortality at 300 ppm [14] | mortality at 300 ppm [10] | mortality at 300 ppm [11] | mortality at 300 ppm [12]

FC(F)(F)c1cc(Cl)cc(-c2c(C(F)(F)F)nn(-c3ncccn3)c2/N=N/Nc2ccccc2)c1 [I.1-10, N-[(E)-[4-[3-chloro-5-(trifluoromethyl)phenyl]-2-pyrimidin-2-yl-5-(trifluoromethyl)pyrazol-3-yl]azo]aniline]
≥ 75%: mortality at 2500 ppm [1] | mortality at 2500 ppm [2] | mortality at 2500 ppm [3] | mortality at 2500 ppm [9] | mortality at 300 ppm [14] | mortality at 300 ppm [10] | mortality at 300 ppm [11] | mortality at 300 ppm [12]

FC(F)(F)c1cc(Cl)cc(-c2c(C(F)(F)F)nn(-c3ncccn3)c2-n2cccc2)c1 [I.1-7, 2-[4-[3-chloro-5-(trifluoromethyl)phenyl]-5-pyrrol-1-yl-3-(trifluoromethyl)pyrazol-1-yl]pyrimidine]
≥ 75%: mortality at 2500 ppm [2] | mortality at 300 ppm [4] | mortality at 300 ppm [7] | mortality at 500 ppm [8] | mortality at 300 ppm [10] | mortality at 300 ppm [11] | mortality at 300 ppm [12]
